In US20230112306A1, “METHODS OF CONTROLLING OR PREVENTING INFESTATION OF SOYBEAN PLANTS BY THE PHYTOPATHOGENIC MICROORGANISM CORYNESPORA CASSIICOLA” (SYNGENTA CROP PROTECTION AG, priority 2020, published 2023):

Test system: Corynespora cassiicola
Test: Corynespora cassiicola (target leaf spot) growth inhibition in nutrient broth, microtiter plate
Type: cell-based
Settings: PDB broth, 24° C., photometric at 620 nm after 3-4 days, vs untreated check, read-out: % control of Corynespora cassiicola (inhibition of growth)
Procedure: Example 1: Corynespora Cassiicola (Target Leaf Spot) Conidia of the fungus from cryogenic storage were directly mixed into nutrient broth (PDB potato dextrose broth). A DMSO solution of the test compounds was placed into a microtiter plate (96-well format) and the nutrient broth containing the fungal spores was added to it. The test plates were incubated at 24° C. and the inhibition of growth (% control of Corynespora cassiicola) was determined photometrically after 3-4 days at 620 nm. The activity of a compound is derived by comparing the inhibition of growth in the treated test solution to the growth in the untreated check. The concentration of the compounds was 6.7, 2.2, 0.74, 0.25, and 0.082 ppm.

CC1(C)N=C(c2cnc3c(F)cccc3c2)c2ccsc2C1(F)F [Ic, 7,7-Difluoro-4-(8-fluoro-3-quinolyl)-6,6-dimethyl-6,7-dihydro-1-thia-5-azaindene]
inhibition at 0.25 ppm: ≥ 20%
inhibition at 0.74 ppm: ≥ 50%
inhibition at 2.2 ppm: ≥ 70%
inhibition at 6.7 ppm: ≥ 70%

Cc1cc(C2=NC(C)(C)C(F)(F)c3ccccc32)cnc1C(F)F [la, 5-(4,4-Difluoro-3,3-dimethyl-3,4-dihydro-1-isoquinolyl)-2-(difluoromethyl)-3-methylpyridine]
inhibition at 0.25 ppm: ≥ 20%
inhibition at 0.74 ppm: ≥ 50%
inhibition at 2.2 ppm: ≥ 70%
inhibition at 6.7 ppm: ≥ 70%
